{"source": "PubChem BioAssay AID1963597", "about": "(National Center for Advancing Translational Sciences (NCATS), 2024)", "note": "Residues, ends and D or L forms follow the SMILES beside them. *: point of attachment. Hexanoyl = CCCCCC(=O)*"}
{"test_system": "human liver microsomes, metabolic stability half-life", "assay": "NCATS Human Liver Microsomal (HLM) Stability Profiling", "conditions": "higher = more stable; screened at 1 µM (by protocol)", "source_text": "Assay submitter (PI): Dr. Pranav Shah\nNIH Center for Advancing Translational Sciences\nPharmacokinetic issues were the leading cause of drug attrition, accounting for approximately 40% of all cases before the turn of the century. To this end, several high-throughput in vitro assays like microsomal stability have been developed to evaluate the pharmacokinetic profiles of compounds in early stages of drug discovery. At NCATS, a single-point rat liver microsomal (RLM) stability assay is used as a Tier I assay, while human liver microsomal (HLM) stability is employed as a Tier II assay. While it is beneficial to have compound libraries screened for HLM stability, the increasing magnitude of hits routinely generated, and the time- and re-source-intensive nature of the assay makes it important to find alternatives. One strategy is to rely on in silico models that have been developed using data generated from these assays. Herein, we describe the development of an HLM stability prediction model using our in-house dataset of ~7,000 compounds, employing both traditional and advanced machine learning methods. Additionally, the strong correlation between our RLM and HLM data was further reinforced by the fact that our HLM model performance improved after adding RLM stability predictions as an input descriptor. […] The best model along with a subset of our dataset has been made publicly accessible on the NCATS@ADME website for the benefit of the greater drug discovery community.\nMicrosomal Stability Assay\nThe substrate depletion method, also called the in vitro t1/2 method was used to analyze test compounds. Incubation and liquid handling were carried out using a previously described method (Shah et al., 2016). Briefly, each reaction mixture (110 µL) consisted of a test article (1 µM), human liver microsomes (0.5 mg/mL), and NADPH regenerating system in phosphate buffer at pH 7.4. Samples were incubated in 384-well plates at 37 degrees C for 0, 5, 10, 15, 30 and 60 min. At each time point, 10 µL of the incubation mixture was aspirated into another 384-well plate which contained cold acetonitrile (ACN) with internal standard (albendazole). All plates were centrifuged at 3000 rpm for 20 min at 4 degrees C, and the supernatants were transferred to a 384-well injection plate. Sample quantification and analysis was performed using a previously described method (Shah et al., 2016, Siramshetty et al., 2020).\n1: Shah, P. et al. An Automated High-Throughput Metabolic Stability Assay Using an Integrated High-Resolution Accurate Mass Method and Automated Data Analysis Software. Drug Metab Dispos 44, 1653-1661 (2016).\n2: Siramshetty et al. Retrospective assessment of rat liver microsomal stability at NCATS: data and QSAR models. Sci Rep 26;10(1):20713 (2020).", "units": {"half-life": "min"}}
{"smiles": "CNS(=O)(=O)CCc1ccc2[nH]cc(C3CCN(C)CC3)c2c1", "half-life": "> 120"}
{"smiles": "CC(C)(C)C1CCC(CC2=C(O)c3ccccc3C(=O)C2=O)CC1", "note": "(configuration not stated)", "half-life": "> 120"}
{"smiles": "CCCCCC(=O)N1CCC[C@H]1C(=O)N[C@@H](Cc1ccc(O)cc1)C(=O)OC", "note": "(Hexanoyl-Pro-Tyr-OMe)", "half-life": 7.74}
{"smiles": "COc1cc2c(Oc3ccc(-c4cnc(Nc5ccc(F)cc5)n(C)c4=O)cc3F)ccnc2cc1OCCCN1CCOCC1", "half-life": 30.6}
{"smiles": "C=CC1=C(C(=O)O)N2C(=O)[C@@H](NC(=O)/C(=N\\OCC(=O)O)c3csc(N)n3)[C@H]2SC1", "half-life": "> 120"}
{"smiles": "CCc1c(O)cc(O)c(C(=O)c2ccc(OCCN3CCOCC3)c(OC)c2)c1CC(=O)N(CCOC)CCOC", "half-life": 41.4}
{"smiles": "Cc1cc(C)cc(-c2cnc3cc(Cl)c(-c4cccc(O)c4)cc3c2OCCCN)c1", "half-life": 25.3}
{"smiles": "COC(=O)c1cc(S(N)(=O)=O)ccc1OC", "half-life": 43.2}
{"smiles": "COc1ccc2cc(-c3cc(-c4cc(Cl)cc(Cl)c4)nn3C(C)c3ccc(C(=O)NCCC(=O)O)cc3)ccc2c1", "note": "(configuration not stated)", "half-life": "> 120"}
{"smiles": "CCCCNc1ncc(C(=O)NCc2ccc(-n3ccnc3)cc2)c(NC2CCC(O)CC2)n1", "note": "(configuration not stated)", "half-life": 33}
{"smiles": "CC(C)c1ccccc1OC(=O)NCCc1ccc2ccccc2c1", "half-life": 4.54}
{"smiles": "O=C(O)c1ccccc1-c1c2cc(Br)c(=O)c(Br)c-2oc2c(Br)c(O)c(Br)cc12", "half-life": "> 120"}
{"smiles": "O=C(CCCCCn1c(=O)c2sccc2n(CC(=O)Nc2cccc(Cl)c2)c1=O)NCc1ccc2c(c1)OCO2", "half-life": 9.36}
{"smiles": "CC1(C#N)CCN(c2c(C(=O)N3CCC(S(C)(=O)=O)CC3)cnc3cc(F)c(F)cc23)CC1", "half-life": "> 120"}
{"smiles": "O=c1cc(OCc2ccc(F)cc2)ccn1-c1ccc(OCCN2CCCC2)cc1", "half-life": "> 120"}
{"smiles": "Cc1ccccc1C(C(=O)NC1CCCCC1)N(C(=O)CNc1ccc(C#N)cc1)c1cccc(F)c1", "note": "(configuration not stated)", "half-life": 2.58}
{"smiles": "O=C(O)c1ccc(Nc2ncc3c(n2)-c2ccc(Cl)cc2C(c2c(F)cccc2F)=NC3)cc1", "half-life": 46.9}
{"smiles": "CC(=O)C1=C(c2ccc(Cl)c(Cl)c2)N(C(C)=O)n2cnnc2S1", "half-life": 4.52}
{"smiles": "Nc1ccn([C@@H]2O[C@H](CO)[C@H](O)C2(F)F)c(=O)n1", "half-life": 22.3}
{"smiles": "Cc1nn2c(c1-c1ccccc1Oc1ccccc1)N(Cc1ccc(C(=O)O)cc1)CCC2", "half-life": 6.19}
{"smiles": "CCc1nn(C)c(C(=O)NCc2ccc(Oc3ccc(C)cc3)cc2)c1Cl", "half-life": 7.51}
{"smiles": "O=C1c2ccccc2C(=O)C1C(=O)C(c1ccccc1)c1ccccc1", "half-life": "> 120"}
{"smiles": "Fc1ccc(C2CCNC[C@H]2COc2ccc3c(c2)OCO3)cc1", "note": "(some centres not stated)", "half-life": 28.9}
{"smiles": "CC(=O)O[C@]1(C(C)=O)CC[C@H]2[C@@H]3C=C(Cl)C4=CC(=O)CC[C@]4(C)[C@H]3CC[C@@]21C", "half-life": 36.7}
{"smiles": "Nc1ncnc2c1ncn2Cc1c(F)cccc1Cl", "half-life": "> 120"}
{"smiles": "C=C1C(=O)O[C@@H]2[C@H]3O[C@]3(C)CC/C=C(\\C)CC[C@@H]12", "half-life": "> 120"}
{"smiles": "CCN(CC)CCNc1ccc(CO)c2sc3ccccc3c(=O)c12", "half-life": 90.3}
{"smiles": "COCc1c(Cl)ccc2c1CC[C@H]2c1ncc[nH]1", "half-life": 115}
{"smiles": "O=C(Cn1ncc2c([nH]c3ccccc32)c1=O)NCCCN1CCN(c2ccccc2)CC1", "half-life": "> 120"}
{"smiles": "C[C@]12CCC(=O)C=C1[C@@H]1C[C@@H]1[C@H]1[C@@H]3[C@@H]4C[C@@H]4[C@@]4(CCC(=O)O4)[C@@]3(C)CC[C@@H]12", "half-life": "> 120"}
{"smiles": "O=c1[nH]c2ccc(Cl)cc2c(N[C@@H]2CN3CCC2CC3)c1-c1nc2ccccc2[nH]1", "half-life": 18.8}
{"smiles": "CN1CCCC(CC2c3ccccc3Sc3ccccc32)C1", "note": "(configuration not stated)", "half-life": 48.7}
{"smiles": "O=c1[nH]c([C@@H]2CCCN2)nc2c1oc1ccc(Cl)cc12", "half-life": "> 120"}
{"smiles": "COc1ccc(-c2oc3ncn4nc(COc5c(C)cccc5C)nc4c3c2-c2ccc(OC)cc2)cc1", "half-life": 13.2}
{"smiles": "COc1cnc(-c2ccc(Cn3c(CC(C)(C)C(=O)O)c(SC(C)(C)C)c4cc(OC[C@@H]5Cc6ccccc6N5C(C)=O)ccc43)cc2)nc1", "half-life": 12.1}
{"smiles": "CC1CCN(CC(=O)N2CCCc3c2c(=O)oc2ccc(OCc4ccccc4)cc32)CC1", "half-life": 1.52}
{"smiles": "CCC(C)(C)c1ccc(CC(C)CN2C[C@@H](C)O[C@@H](C)C2)cc1", "note": "(some centres not stated)", "half-life": 12.2}
{"smiles": "CN(C)CCN1C(=O)c2ccccc2N(C)c2ccccc21", "half-life": "> 120"}
{"smiles": "CN1C(=O)C(Cc2ccc3ccccc3c2)N=C(c2ccc(O)cc2)c2cc(Cl)ccc21", "note": "(configuration not stated)", "half-life": "> 120"}
{"smiles": "CCCCN(CCCC)CCC(O)c1cc2c(Cl)cc(Cl)cc2c2cc(C(F)(F)F)ccc12", "note": "(configuration not stated)", "half-life": 29.5}
{"smiles": "CCOc1ccccc1OCCN[C@H](C)Cc1ccc(OC)c(S(N)(=O)=O)c1", "half-life": "> 120"}
{"smiles": "C#CCOC(C(=O)OCCN(C)C)(c1ccccc1)c1ccccc1", "half-life": 43.7}
{"smiles": "COc1cccc(C(=O)Nc2ccc3ncnc(N4CCCCC4)c3c2)c1", "half-life": 5.03}
{"smiles": "Cc1ccc(S(=O)(=O)Nc2nc3n(n2)C(c2ccc(F)cc2)C=C(c2ccccc2)N3)cc1", "note": "(configuration not stated)", "half-life": "> 120"}
{"smiles": "CC(=O)N1CCCc2cc(S(=O)(=O)Nc3ccc(OC(F)(F)F)cc3)ccc21", "half-life": 20.9}
{"smiles": "CCCCNC(=O)NS(=O)(=O)c1ccc(C)cc1", "half-life": 115}
{"smiles": "CCN(CC)C(C)C(=O)c1ccccc1", "note": "(configuration not stated)", "half-life": "> 120"}
{"smiles": "CN(C)N(C)C(=O)[C@@]1(Cc2ccccc2)CCCN(C(=O)[C@@H](Cc2c[nH]c3ccccc23)NC(=O)C(C)(C)N)C1", "half-life": 12.6}
{"smiles": "C[C@]12C=CC(=O)C=C1CCC1C3C[C@@H](O)[C@](O)(C(=O)CO)[C@@]3(C)C[C@H](O)[C@@]12F", "note": "(some centres not stated)", "half-life": "> 120"}
{"smiles": "CC(C)(C)c1coc([C@@H]2COCCN2Cc2ccc(C(=O)O)cc2)n1", "half-life": 80.9}
{"smiles": "CC(C)COC(=O)c1ccc(N)cc1", "half-life": 11.4}
{"smiles": "CNCCCC12CCC(c3ccccc31)c1ccccc12", "half-life": "> 120"}
{"smiles": "O=C(Cn1cc(SCc2cccc(Cl)c2)c2ccccc21)N1CCCCC1", "half-life": 0.84}
{"smiles": "CCCCCCCCC(=O)NCc1ccc(O)c(OC)c1", "half-life": 3.71}
{"smiles": "COc1ccc2c(c1)c(CC(=O)OCC(=O)O)c(C)n2C(=O)c1ccc(Cl)cc1", "half-life": "> 120"}
{"smiles": "CCN1CCCC1CNC(=O)C(O)(c1ccccc1)c1ccccc1", "note": "(configuration not stated)", "half-life": "> 120"}
{"smiles": "CCN(CC)C(=O)/C(Cl)=C(\\C)OP(=O)(OC)OC", "half-life": "> 120"}
{"smiles": "COC(=O)C1=C(C)NC(C)=C(C(=O)O[C@@H]2CCCN(Cc3ccccc3)C2)[C@@H]1c1cccc([N+](=O)[O-])c1", "half-life": 1.93}
{"smiles": "CCOC(=O)c1ccc(O)cc1", "half-life": 61}
{"smiles": "Cc1ccc(O)cc1Nc1ccnc(Nc2cccc(C(N)=O)c2)n1", "half-life": 86.5}
{"smiles": "Cc1ccccc1C(=O)N1CCC(C(=O)N2CCC(N3Cc4ccccc4C3=O)CC2)CC1", "half-life": 93.1}
{"smiles": "O=S(c1cc(Cl)cc(Cl)c1O)c1cc(Cl)cc(Cl)c1O", "half-life": 99.8}
{"smiles": "COc1ccc(S(=O)(=O)Nc2cc(Cl)cc(Cl)c2OC)cc1N1CCNCC1", "half-life": "> 120"}
{"smiles": "Cc1c(NC(=O)c2ccc(N3CCC(C)CC3)c([N+](=O)[O-])c2)cccc1-c1nc2ccccc2o1", "half-life": 30.7}
{"smiles": "CNC(=O)[C@H](Cc1ccccc1)NC(=O)[C@H](CC(C)C)[C@H](CSc1cccs1)C(=O)NO", "half-life": 110}
{"smiles": "Oc1ccc(-c2cnc3ccc(NCc4ccco4)nn23)cc1", "half-life": 9.45}
{"smiles": "O=Nc1c(-c2c(O)[nH]c3cc(Br)ccc23)[nH]c2ccccc12", "half-life": 19}
{"smiles": "O=c1c(N2CCN(c3cccc(Cl)c3)CC2)csc2ccc(Cl)cc12", "half-life": 12.8}
{"smiles": "Nc1cc(=O)[nH]c(N)n1", "half-life": 99.2}
{"smiles": "Cn1cnc2c1c(=O)[nH]c(=O)n2C", "half-life": 60.4}
{"smiles": "CC(=O)OCC(=O)[C@@]1(O)CC[C@H]2[C@@H]3CCC4=CC(=O)C=C[C@]4(C)[C@@]3(F)[C@@H](O)C[C@@]21C", "half-life": 87.5}
{"smiles": "C=CC(=O)N1CCN(C(=O)CNc2cc(-c3ccccc3Cl)c(Cl)cc2OC)CC1", "half-life": 9.86}
